Results as given in PubChem BioAssay AID328 (DTP/NCI, 2004).
Several values for one entry are separate records, joined by “and”; a condition that tells them apart may be missing. Equal values may be shown once. Inconclusive results and toxic doses are left out.

Tested on: BDF1 mice, P388 leukemia ip, median survival T/C
Assay: NCI In Vivo Anticancer Drug Screen. Data for tumor model P388 Leukemia (intraperitoneal) in B6D2F1 (BDF1) mice
Settings: endpoint: median survival time, higher = longer survival
Outline: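 Mice carrying the transplantable tumour receive compound or vehicle. Survival is followed in each arm, and the treated measure is divided by the vehicle measure.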

In the case of `CC(C)[C@](O)(C(=O)OCC1=CC[N+]2([O-])CC[C@@H](O)[C@@H]12)[C@H](C)O` (stereo partly drawn), the T/C (dose: 6.2 mg/kg/injection, schedule: Q01DX009 (ip), vehicle: water) is reported as 113 % of control, the T/C (dose: 8.0 mg/kg/injection, schedule: Q03HX024 (ip), vehicle: water) is reported as 100 % of control and the T/C (dose: 16.0 mg/kg/injection, schedule: Q03HX008 (ip), vehicle: saline) is reported as 100 % of control. For the same molecule, the T/C (dose: 16.0 mg/kg/injection, schedule: Q03HX008 (ip), vehicle: water) was 95 % of control, the T/C (dose: 16.0 mg/kg/injection, schedule: Q03HX016 (ip), vehicle: saline) was 90 % of control and the T/C (dose: 16.0 mg/kg/injection, schedule: Q03HX016 (ip), vehicle: water) was 100 % of control. For the same molecule, the T/C (dose: 16.0 mg/kg/injection, schedule: Q03HX024 (ip), vehicle: saline) was 90 % of control, the T/C (dose: 16.0 mg/kg/injection, schedule: Q03HX024 (ip), vehicle: water) was 90 % of control and the T/C (dose: 25.0 mg/kg/injection, schedule: Q01DX009 (ip), vehicle: saline) was 110 % of control. The T/C (dose: 25.0 mg/kg/injection, schedule: Q01DX009 (ip), vehicle: water) was 118 % of control, the T/C (dose: 32.0 mg/kg/injection, schedule: Q03HX008 (ip), vehicle: saline) was 105 % of control and the T/C (dose: 32.0 mg/kg/injection, schedule: Q03HX008 (ip), vehicle: water) was 100 % of control. For the same molecule, the T/C (dose: 32.0 mg/kg/injection, schedule: Q03HX016 (ip), vehicle: saline) was 100 % of control, the T/C (dose: 32.0 mg/kg/injection, schedule: Q03HX016 (ip), vehicle: water) was 100 % of control and the T/C (dose: 32.0 mg/kg/injection, schedule: Q03HX024 (ip), vehicle: saline) was 100 % of control. The T/C (dose: 32.0 mg/kg/injection, schedule: Q03HX024 (ip), vehicle: water) was 100 % of control, the T/C (dose: 64.0 mg/kg/injection, schedule: Q01DX009 (ip), vehicle: saline) was 105 % of control and the T/C (dose: 64.0 mg/kg/injection, schedule: Q03HX008 (ip), vehicle: saline) was 100 % of control. For the same molecule, the T/C (dose: 64.0 mg/kg/injection, schedule: Q03HX008 (ip), vehicle: water) was 100 % of control, the T/C (dose: 64.0 mg/kg/injection, schedule: Q03HX016 (ip), vehicle: saline) was 105 % of control and the T/C (dose: 64.0 mg/kg/injection, schedule: Q03HX016 (ip), vehicle: water) was 100 % of control. The T/C (dose: 64.0 mg/kg/injection, schedule: Q03HX024 (ip), vehicle: saline) was 105 % of control, the T/C (dose: 64.0 mg/kg/injection, schedule: Q03HX024 (ip), vehicle: water) was 95 % of control and the T/C (dose: 64.0 mg/kg/injection, schedule: Q04DX003 (ip), vehicle: water) was 100 % of control. For the same molecule, the T/C (dose: 100.0 mg/kg/injection, schedule: Q04DX002 (ip), vehicle: saline) was 108 % of control, the T/C (dose: 128.0 mg/kg/injection, schedule: Q01DX001 (ip), vehicle: saline) was 95 % of control and the T/C (dose: 128.0 mg/kg/injection, schedule: Q01DX009 (ip), vehicle: saline) was 89 % of control. For the same molecule, the T/C (dose: 128.0 mg/kg/injection, schedule: Q01DX009 (sc), vehicle: water) was 95 % of control, the T/C (dose: 128.0 mg/kg/injection, schedule: Q03HX008 (ip), vehicle: saline) was 95 % of control and the T/C (dose: 128.0 mg/kg/injection, schedule: Q03HX016 (ip), vehicle: saline) was 100 % of control. The T/C (dose: 128.0 mg/kg/injection, schedule: Q03HX016 (ip), vehicle: water) was 100 % of control, the T/C (dose: 128.0 mg/kg/injection, schedule: Q03HX024 (ip), vehicle: saline) was 105 % of control and the T/C (dose: 128.0 mg/kg/injection, schedule: Q03HX024 (ip), vehicle: water) was 100 % of control. The T/C (dose: 128.0 mg/kg/injection, schedule: Q04DX003 (ip), vehicle: saline) was 95 % of control, the T/C (dose: 128.0 mg/kg/injection, schedule: Q04DX003 (ip), vehicle: water) was 100 % of control and the T/C (dose: 128.0 mg/kg/injection, schedule: Q08DX002 (ip), vehicle: saline) was 90 % of control. For the same molecule, the T/C (dose: 200.0 mg/kg/injection, schedule: Q01DX001 (ip), vehicle: saline) was 95 % of control, the T/C (dose: 200.0 mg/kg/injection, schedule: Q01DX009 (ip), vehicle: other) was 157 % of control and the T/C (dose: 200.0 mg/kg/injection, schedule: Q04DX002 (ip), vehicle: saline) was 100 % of control. The T/C (dose: 250.0 mg/kg/injection, schedule: Q04DX003 (ip), vehicle: water) was 154 % of control, the T/C (dose: 256.0 mg/kg/injection, schedule: Q01DX001 (ip), vehicle: saline) was 90 % of control and the T/C (dose: 256.0 mg/kg/injection, schedule: Q01DX001 (ip), vehicle: water) was 118 % of control. For the same molecule, the T/C (dose: 256.0 mg/kg/injection, schedule: Q01DX009 (ip), vehicle: saline) was 96 % of control, the T/C (dose: 256.0 mg/kg/injection, schedule: Q01DX009 (ip), vehicle: water) was 154 % of control and the T/C (dose: 256.0 mg/kg/injection, schedule: Q01DX009 (oral), vehicle: water) was 90 % of control. The T/C (dose: 256.0 mg/kg/injection, schedule: Q01DX009 (sc), vehicle: water) was 100 % of control, the T/C (dose: 256.0 mg/kg/injection, schedule: Q03HX008 (ip), vehicle: saline) was 120 % of control and the T/C (dose: 256.0 mg/kg/injection, schedule: Q03HX016 (ip), vehicle: saline) was 105 % of control. The T/C (dose: 256.0 mg/kg/injection, schedule: Q03HX024 (ip), vehicle: saline) was 95 % of control, the T/C (dose: 256.0 mg/kg/injection, schedule: Q04DX003 (ip), vehicle: saline) was 100 % of control and the T/C (dose: 256.0 mg/kg/injection, schedule: Q04DX003 (ip), vehicle: water) was 104 % of control. The T/C (dose: 288.0 mg/kg/injection, schedule: Q01DX009 (ip), vehicle: water) was 159 % of control, the T/C (dose: 360.0 mg/kg/injection, schedule: Q01DX009 (ip), vehicle: water) was 175 % of control and the T/C (dose: 400.0 mg/kg/injection, schedule: Q01DX009 (ip), vehicle: other) was 105 % of control. For the same molecule, the T/C (dose: 500.0 mg/kg/injection, schedule: Q01DX001 (ip), vehicle: water) was 154 % of control, the T/C (dose: 500.0 mg/kg/injection, schedule: Q04DX003 (ip), vehicle: water) was 172 % of control and the T/C (dose: 500.0 mg/kg/injection, schedule: Q08DX002 (ip), vehicle: water) was 163 % of control. For the same molecule, the T/C (dose: 512.0 mg/kg/injection, schedule: Q01DX001 (ip), vehicle: saline) was 100 % of control, the T/C (dose: 512.0 mg/kg/injection, schedule: Q01DX001 (ip), vehicle: water) was 118 % of control and the T/C (dose: 512.0 mg/kg/injection, schedule: Q01DX009 (ip), vehicle: saline) was 100 % of control. The T/C (dose: 512.0 mg/kg/injection, schedule: Q01DX009 (ip), vehicle: water) was 172 % of control, the T/C (dose: 512.0 mg/kg/injection, schedule: Q01DX009 (oral), vehicle: water) was 95 % of control and the T/C (dose: 512.0 mg/kg/injection, schedule: Q01DX009 (sc), vehicle: water) was 90 % of control. For the same molecule, the T/C (dose: 512.0 mg/kg/injection, schedule: Q04DX003 (ip), vehicle: saline) was 90 % of control, the T/C (dose: 512.0 mg/kg/injection, schedule: Q04DX003 (ip), vehicle: water) was 100 % of control and the T/C (dose: 600.0 mg/kg/injection, schedule: Q01DX009 (ip), vehicle: water) was 163 % of control and 169 % of control. The T/C (dose: 750.0 mg/kg/injection, schedule: Q01DX005 (ip), vehicle: water) was 100 % of control, the T/C (dose: 800.0 mg/kg/injection, schedule: Q01DX001 (ip), vehicle: saline) was 108 % of control and the T/C (dose: 800.0 mg/kg/injection, schedule: Q01DX009 (ip), vehicle: other) was 99 % of control. The T/C (dose: 1000.0 mg/kg/injection, schedule: Q01DX001 (ip), vehicle: water) was 154 % of control, the T/C (dose: 1000.0 mg/kg/injection, schedule: Q04DX003 (ip), vehicle: water) was 195 % of control and the T/C (dose: 1000.0 mg/kg/injection, schedule: Q08DX002 (ip), vehicle: water) was 177 % of control. For the same molecule, the T/C (dose: 1024.0 mg/kg/injection, schedule: Q01DX001 (ip), vehicle: saline) was 100 % of control, the T/C (dose: 1024.0 mg/kg/injection, schedule: Q01DX001 (ip), vehicle: water) was 95 % of control and the T/C (dose: 1024.0 mg/kg/injection, schedule: Q01DX009 (ip), vehicle: saline) was 160 % of control. The T/C (dose: 1024.0 mg/kg/injection, schedule: Q01DX009 (oral), vehicle: water) was 90 % of control, the T/C (dose: 1024.0 mg/kg/injection, schedule: Q01DX009 (sc), vehicle: water) was 90 % of control and the T/C (dose: 1024.0 mg/kg/injection, schedule: Q04DX003 (ip), vehicle: saline) was 110 % of control. The T/C (dose: 1024.0 mg/kg/injection, schedule: Q04DX003 (ip), vehicle: water) was 100 % of control, the T/C (dose: 1024.0 mg/kg/injection, schedule: Q08DX002 (ip), vehicle: saline) was 100 % of control and the T/C (dose: 1024.0 mg/kg/injection, schedule: Q08DX002 (ip), vehicle: water) was 95 % of control. For the same molecule, the T/C (dose: 1500.0 mg/kg/injection, schedule: Q01DX001 (ip), vehicle: water) was 163 % of control, the T/C (dose: 1500.0 mg/kg/injection, schedule: Q08DX002 (ip), vehicle: water) was 181 % of control and the T/C (dose: 2048.0 mg/kg/injection, schedule: Q01DX001 (ip), vehicle: saline) was 120 % of control. The T/C (dose: 2048.0 mg/kg/injection, schedule: Q01DX001 (ip), vehicle: water) was 113 % of control, the T/C (dose: 2048.0 mg/kg/injection, schedule: Q01DX009 (oral), vehicle: water) was 90 % of control and the T/C (dose: 2048.0 mg/kg/injection, schedule: Q08DX002 (ip), vehicle: saline) was 105 % of control. For the same molecule, the T/C (dose: 2048.0 mg/kg/injection, schedule: Q08DX002 (ip), vehicle: water) was 118 % of control.
